The values that follow come from patent publication US20030236175A1, “Process for well fluids base oil via metathesis of alpha-olefins” (priority 2002, published 2003).

In the data set the test system is leptocheirus plumulosus. Format: in vivo. From the text:
This protocol uses leptocheirus plumulosus in a 10-day sediment toxicity test using a reference standard C16-18 IO (internal olefin) (sometimes also designated as C16-C18 IO, C1618 IO, or C16-18 IO) having approximately 65% C16 and 35% C18 olefin.

Consider `CCCCCCCCC=CCCCCCCCC` [Example 11, 9-octadecene], for which, where the note is “LC50, 10-day sediment toxicity test, leptocheirus plumulosus”, the “Toxicity, mg/kg” value was 11,279 mg/kg. Moreover, the Toxicity ratio (ratio of LC50 values, sample vs reference standard C16-18 IO (Equation 1), passing <= 1.0) was 0.63.
